Measurements reported in patent US4870097A, “Pharmaceutical use of derivatives of tryptophan” (priority 1984, dated 1989).
“Also recorded” adds a separate entry of the source.

Legend:
[1] = test system: activity of analgesic drugs; assay: Hot plate test: potentiation of analgesic drugs; type: in vivo, rats
Experimental: The method is that described by Eddy et al. (J. Pharmac. Exp. Ther. 107, 385 (1953)).
Groups of five male rats having a weight of about 150 g and which have not been fasting are used.
The animals are placed on a metal plate which is on the bottom of a transparent cylinder heated to 55°±1° C. by an azeotropic boiling mixture (1:1 acetone-ethyl formate). The time which passes between the moment at which the animal is placed on the hot plate and the moment at which it licks its feet or tries to jump out of the cylinder is defined as the reaction time. The control reaction time is measured 10 and 5 minutes before the administration of the drugs and 10, 20, 30, 45, 60, 90 minutes afterwards. The animals are left on the plate for a maximum period of 30 seconds.
The response to the administration of the product is considered positive if at least a doubling of the normal reaction time is seen. The results obtained are given in Table 2 which records the groups treated, the dose administered and the stay times on the plate expressed as the number of positive responses over the number treated.

[2] = test system: analgesic activity of DALA; assay: Tail Flick test: increase in the analgesic activity of DALA (i.c.v.); type: in vivo, rats; parameters: analgesic activity (Tail Flick), 10' / analgesic activity (Tail Flick), 20' / analgesic activity (Tail Flick), 30' / analgesic activity (Tail Flick), 45' / analgesic activity (Tail Flick), 60' / analgesic activity (Tail Flick), AVERAGE: scale not given here; conditions: for analgesic activity (Tail Flick), AVERAGE: average 10'-60'
Experimental: In order to check one of the possible mechanisms for the action of the compounds of the invention, that is, their possible inhibition of the enzymatic degradation of endogenous enkephalins, the following experiment was carried out:
A cannula was implanted in the right lateral ventricle of male rats having a weight of 150-200 g (groups of five animals were used) in order to allow the intracerebroventricular (i.c.v.) administration of drugs according to the method of Noble et al (Life Science 6, (1970) 281-291).
The animals were subsequently treated (i.c.v.) with 3 μg of D-ala-methionine-enkephalinamide (DALA) immediately after an injection (i.c.v.) of the compounds under study at the doses given in Table 4. Analgesia was tested for by the Tail Flick method already mentioned, at the times

[3] = test system: tolerance induced by morphine; assay: Antagonism to the development of tolerance to repeated administration of morphine HCl (tail flick); type: in vivo, rats
Experimental: Several of the compounds of the invention were examined to determine any capacity to antagonise the development of tolerance induced by morphine. Groups of six male rats having a weight of about 200-250 were used.
At intervals of 24 hours from the first treatment (time 0), each animal (except for the control group treated with a physiological solution) received 3 mg/kg of morphine hydrochloride i.p. together with 3 mg/kg i.p. of the compounds indicated (with the exception of the group treated solely with morphine).
The determination of the threshold for the pain stimulus was effected at 15°, 30', 45' and 60' intervals from the treatment by the "tail flick" test.

[4] = test system: guinea pig gall bladder contracted with CCK-8; assay: Anti-CCK activity on guinea pig gall bladders in vitro; type: biochemical; conditions: CCK-8 10 ng/ml, concentration antagonising 50% of contracting effect
Procedure, shortened: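 Longitudinal gall bladder strips in Krebs at 32° C, gassed with O2/CO2 95:5, were contracted with CCK-8 at 10 ng/ml and contractions recorded isometrically via force transducer. ED50 in mcg/ml is the compound concentration antagonising 50% of CCK contraction, derived by regression over at least three experiments.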

[5] = acetylsalicylic acid 100 + C. 26 5 mg/kg i.p.
[6] = acetylsalicylic acid 100 + C. 26 10 mg/kg i.p.
[7] = acetylsalicylic acid 100 + C. 26 20 mg/kg i.p.
[8] = propoxyphene 15 + C. 26 1 mg/kg i.p.
[9] = propoxyphene 15 + C. 26 2.5 mg/kg i.p.
[10] = propoxyphene 15 + C. 26 5.0 mg/kg i.p.
[11] = days 0-7, 3 mg/kg + morphine (row Morphine: alone)

With CCCCCCc1ccc(C(=O)N[C@@H](Cc2c[nH]c3ccccc23)C(=O)O)cc1 [Compound 26] the “Positive Total X/25” value [1, 5] was 15, the “positive responses over the number treated, 10'” value [1, 5] was 3/5 and the “positive responses over the number treated, 20'” value [1, 5] was 2/5. For the same compound, the “positive responses over the number treated, 30'” value [1, 5] was 4/5, the “positive responses over the number treated, 45'” value [1, 5] was 4/5 and the “positive responses over the number treated, 60'” value [1, 5] was 2/5. For the same compound, the “Positive Total X/25” value [1, 6] was 21, the “positive responses over the number treated, 10'” value [1, 6] was 5/5 and the “positive responses over the number treated, 20'” value [1, 6] was 4/5. For the same compound, the “positive responses over the number treated, 30'” value [1, 6] was 5/5, the “positive responses over the number treated, 45'” value [1, 6] was 4/5 and the “positive responses over the number treated, 60'” value [1, 6] was 3/5. For the same compound, the “Positive Total X/25” value [1, 7] was 23, the “positive responses over the number treated, 10'” value [1, 7] was 4/5 and the “positive responses over the number treated, 20'” value [1, 7] was 5/5. For the same compound, the “positive responses over the number treated, 30'” value [1, 7] was 5/5, the “positive responses over the number treated, 45'” value [1, 7] was 5/5 and the “positive responses over the number treated, 60'” value [1, 7] was 4/5. For the same compound, the “Positive Total X/25” value [1, 8] was 15, the “positive responses over the number treated, 10'” value [1, 8] was 2/5 and the “positive responses over the number treated, 20'” value [1, 8] was 3/5. The “positive responses over the number treated, 30'” value [1, 8] was 4/5, the “positive responses over the number treated, 45'” value [1, 8] was 3/5 and the “positive responses over the number treated, 60'” value [1, 8] was 3/5. For the same compound, the “Positive Total X/25” value [1, 9] was 20, the “positive responses over the number treated, 10'” value [1, 9] was 3/5 and the “positive responses over the number treated, 20'” value [1, 9] was 5/5. The “positive responses over the number treated, 30'” value [1, 9] was 5/5, the “positive responses over the number treated, 45'” value [1, 9] was 4/5 and the “positive responses over the number treated, 60'” value [1, 9] was 3/5. The “Positive Total X/25” value [1, 10] was 24, the “positive responses over the number treated, 10'” value [1, 10] was 4/5 and the “positive responses over the number treated, 20'” value [1, 10] was 5/5. For the same compound, the “positive responses over the number treated, 30'” value [1, 10] was 5/5, the “positive responses over the number treated, 45'” value [1, 10] was 5/5 and the “positive responses over the number treated, 60'” value [1, 10] was 5/5. The “analgesic activity of propoxyphene (in words)” value ([1]; with propoxyphene, 2.5 mg/kg i.p. (double), 5 mg/kg i.p. (maximum effect)) was “at least double the analgesic activity of propoxyphene; also recorded: a maximum effect”, the “analgesic activity (Tail Flick), 10'” value ([2]; 10(D) + 0.001 mg/kg (ICV)) was 62.44 and the “analgesic activity (Tail Flick), 20'” value ([2]; 10(D) + 0.001 mg/kg (ICV)) was 73.94. The “analgesic activity (Tail Flick), 30'” value ([2]; 10(D) + 0.001 mg/kg (ICV)) was 67.94, the “analgesic activity (Tail Flick), 45'” value ([2]; 10(D) + 0.001 mg/kg (ICV)) was 40.38 and the “analgesic activity (Tail Flick), 60'” value ([2]; 10(D) + 0.001 mg/kg (ICV)) was 34.06. For the same compound, the “analgesic activity (Tail Flick), AVERAGE” value ([2]; 10(D) + 0.001 mg/kg (ICV)) was 55.75 ± 7.84, the “analgesic activity (Tail Flick), 10'” value ([2]; 10(D) + 0.01 mg/kg (ICV)) was 80.54 and the “analgesic activity (Tail Flick), 20'” value ([2]; 10(D) + 0.01 mg/kg (ICV)) was 82.66. The “analgesic activity (Tail Flick), 30'” value ([2]; 10(D) + 0.01 mg/kg (ICV)) was 70.42, the “analgesic activity (Tail Flick), 45'” value ([2]; 10(D) + 0.01 mg/kg (ICV)) was 45.9 and the “analgesic activity (Tail Flick), 60'” value ([2]; 10(D) + 0.01 mg/kg (ICV)) was 68.9. For the same compound, the “analgesic activity (Tail Flick), AVERAGE” value ([2]; 10(D) + 0.01 mg/kg (ICV)) was 69.68 ± 6.53, the “percentage variation in the latency time, day 0” value ([3]; day 0, 3 mg/kg i.p. + morphine HCl 3 mg/kg i.p. (row Morphine: alone)) was 74.14% and the “percentage variation in the latency time, day 1” value ([3]; day 1, 3 mg/kg i.p. + morphine HCl 3 mg/kg i.p. (row Morphine: alone)) was 45.73%. The “percentage variation in the latency time, day 2” value ([3]; day 2, 3 mg/kg i.p. + morphine HCl 3 mg/kg i.p. (row Morphine: alone)) was 59.5%, the “percentage variation in the latency time, day 3” value ([3]; day 3, 3 mg/kg i.p. + morphine HCl 3 mg/kg i.p. (row Morphine: alone)) was 51.52% and the “percentage variation in the latency time, day 4” value ([3]; day 4, 3 mg/kg i.p. + morphine HCl 3 mg/kg i.p. (row Morphine: alone)) was 43.40%. For the same compound, the “percentage variation in the latency time, day 5” value ([3]; day 5, 3 mg/kg i.p. + morphine HCl 3 mg/kg i.p. (row Morphine: alone)) was 37.60%, the “percentage variation in the latency time, day 6” value ([3]; day 6, 3 mg/kg i.p. + morphine HCl 3 mg/kg i.p. (row Morphine: alone)) was 21.43% and the “percentage variation in the latency time, day 7” value ([3]; day 7, 3 mg/kg i.p. + morphine HCl 3 mg/kg i.p. (row Morphine: alone)) was 29.75%. For the same compound, the “Area subtended (1)” value [3, 11] was 366.7 Effect-Day, the “regression line % Effect versus Day” value [3, 11] was “% Effect = - 6.02 Day + 66.5” and the “Area 1 / Area Morphine” value ([3]; days 0-7, 3 mg/kg + morphine, ratio to morphine alone) was 2.61. The “Anti CCK-8 activity, ED50” value [4] was 152.1 µg/mL.
